Assays:
weeds [1] = test: Pre-emergence test, damage to weeds; format: in vivo; settings: soil sprayed 24 hours after sowing, rated after three weeks
Procedure: Solvent: 5 parts by weight of acetone
(§1) Emulsifier: 1 part by weight of alkylaryl polyglycol ether
(§2) To produce a suitable preparation of active compound, 1 part by weight of active compound is mixed with the stated amount of solvent, the stated amount of emulsifier is added and the concentrate is diluted with water to the desired concentration.
Seeds of the test plants are sown in normal soil. After 24 hours, the soil is sprayed with the preparation of active compound such that the particular amount of active compound desired is applied per unit area. The concentration of active compound in the spray liquor is chosen such that the particular amount of active compound desired is applied in 1000 litres of water per hectare.
(§3) After three weeks, the degree of damage to the plants is rated in % damage in comparison to the development of the untreated control. The figures denote: • 0%=no effect (like untreated control) • 100%=total destruction

weeds [2] = test: Post-emergence test, damage to weeds; format: in vivo; settings: test plants of 5-15 cm sprayed, rated after three weeks
Procedure: Solvent: 5 part by weight of acetone
as §1, §2
Test plants of a height of 5-15 cm are sprayed with the preparation of active compound such that the particular amounts of active compound desired are applied per unit area. The concentration of the spray liquor is chosen such that the particular amounts of active compound desired are applied in 1000 l of water/ha.
as §3

[3] = Log P by reversed-phase HPLC (C 18), acidic range; format: physicochemical; settings: reversed-phase HPLC column (C 18); given in the preparation examples, acidic or neutral range not given
Procedure: Log P values given in the tables were determined in accordance with EEC Directive 79/831 Annex V.A8 by HPLC (High Performance Liquid Chromatography) using a reversed-phase column (C 18). Temperature: 43° C. (a) Mobile phases for the determination in the acidic range: 0.1% aqueous phosphoric acid, acetonitrile; linear gradient from 10% acetonitrile to 90% acetonitrile—the corresponding measurement results in Tables 1 and 2 are labelled^a).

| Structure (SMILES) | activity against weeds (weeds [1]) | activity against weeds (weeds [2]) | chromatographic logP [3] |
| --- | --- | --- | --- |
| CCn1ncc(C(=O)c2ccc(Cl)c(OCCNC(C)=O)c2Cl)c1O [Example I-2-1, N-(2-{2,6-dichloro-3-[(1-ethyl-5-hydroxy-1H-pyrazol-4-yl)-carbonyl]-phenoxy}-ethyl)-acetamide] | strong activity | strong activity | 1.41 |
| CC(C)NC(=S)NCc1c(Cl)ccc(C(=O)C2=C(O)CCCC2=O)c1Cl [Example I-2-3] | strong activity | strong activity | 2.74 |

Reference: patent US7456133B2, “Substituted arylketones” (Bayer CropScience AG, priority 2001, dated 2008)
